Measured values as given in patent USRE46630E1, “Substituted 4-pyridones and their use as inhibitors of neutrophil elastase activity” (Boehringer Ingelheim International GmbH, priority 2012, dated 2017).
pIC50: −log10 of the molar value.

target: T1, Human neutrophil elastase (Homo sapiens, UniProt P08246); test: Human Neutrophil Elastase Assay; type: biochemical; conditions: Neutrophil Elastase assay; substrate MeOSuc-Ala-Ala-Pro-Val-AMC 250 μM; 15 min preincubation, 60 min incubation at room temperature; pH 7.5
T1 construct: purchased Calbiochem 324681
T1 sequence (P08246 30-267): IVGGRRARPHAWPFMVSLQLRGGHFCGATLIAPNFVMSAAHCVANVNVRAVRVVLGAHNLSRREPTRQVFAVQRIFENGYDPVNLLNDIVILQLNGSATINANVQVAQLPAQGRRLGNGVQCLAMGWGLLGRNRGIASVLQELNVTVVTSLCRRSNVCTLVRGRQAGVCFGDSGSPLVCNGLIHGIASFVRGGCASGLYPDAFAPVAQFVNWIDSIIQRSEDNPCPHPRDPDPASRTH
Procedure: Human Neutrophil Elastase Assay
All other materials were of the highest grade commercially available.
The following buffers were used: Compound buffer: 100 mM Tris, 500 mM NaCl, adjusted to pH 7.5; Assay buffer: 100 mM Tris, 500 mM NaCl, adjusted to pH 7.5, containing 0.01% BSA.
Assay conditions: Test compounds were prediluted in DMSO and subsequently in compound buffer (5% DMSO final). […] After inactivation of the enzyme, fluorescence intensities were measured at 380 nm excitation and 460 nm emission wavelengths.
Each plate contains wells with a high value control (DMSO+enzyme+substrate) and wells with a low value control (DMSO+inactivated enzyme+substrate). […] Means of low values were taken as 0%, means of high values as 100%.

pIC50 | Structure (SMILES)
8.33 | Cc1c(-c2cccc(C(F)(F)F)c2)c(=O)c(C(=O)NCC(C)O)cn1C(C)c1ccc(C#N)cc1 (stereo not drawn) [Example 7.14]
7.00 | Cc1c(-c2ccnc(C(F)(F)F)c2)c(=O)c(C(=O)NC2CCCC2O)cn1C(C)c1ccc(C#N)cc1 (stereo not drawn) [Example 9.41]
8.15 | Cc1nnc(CNC(=O)c2cn(C(C)c3ccc(C#N)cc3)c(C)c(-c3ccnc(C(F)(F)F)c3)c2=O)o1 (stereo not drawn) [Example 9.7]
8.36 | Cc1c(-c2cccc(C(F)F)c2)c(=O)c(C(=O)NCCn2cccn2)cn1C(C)c1ccc(C#N)cc1 (stereo not drawn) [Example 8.15]
8.28 | Cc1c(-c2ccnc(C(F)(F)F)c2)c(=O)c(C(=O)NC2(C#N)CC2)cn1C(C)c1ccc(C#N)cc1 (stereo not drawn) [Example 9.45]
7.48 | Cc1c(-c2ccnc(C(F)(F)F)c2)c(=O)c(C(=O)NCC2CCCCO2)cn1C(C)c1ccc(C#N)cc1 (stereo not drawn) [Example 9.37]
8.72 | Cc1c(-c2cccc(C(F)F)c2)c(=O)c(C(=O)NCCO)cn1C(C)c1ccc(C#N)cc1 (stereo not drawn) [Example 8.9]
7.35 | Cc1c(-c2ccccc2)c(=O)c(C(=O)NCc2ccc(S(C)(=O)=O)cc2)cn1Cc1ccc(C#N)cc1 [Example 6.1, 1-(4-Cyano-benzyl)-6-methyl-4-oxo-5-phenyl-1,4-dihydro-pyridine-3-carboxylic acid 4-methanesulfonyl-benzylamide]
8.28 | CS(=O)(=O)c1ccc(CNC(=O)c2cn(Cc3ccc(C#N)cc3)cc(-c3cccc(C(F)(F)F)c3)c2=O)nc1 [Example 13.2, 1-(4-Cyano-benzyl)-4-oxo-5-(3-trifluoromethyl-phenyl)-1,4-dihydro-pyridine-3-carboxylic acid (5-methanesulfonyl-pyridin-2-ylmethyl)-amide]
8.05 | Cc1c(-c2ccnc(C(F)(F)F)c2)c(=O)c(C(=O)NCc2cnn(C)c2)cn1C(C)c1ccc(C#N)cc1 (stereo not drawn) [Example 9.19]
8.85 | Cc1c(-c2ccnc(C(F)(F)F)c2)c(=O)c(C(=O)NCc2ccc(S(C)(=O)=O)cc2)cn1Cc1ccc(C#N)cc1F [Example 5.3]
8.42 | Cc1c(-c2cc(C(F)(F)F)ccn2)c(=O)c(C(=O)NCc2ccc(S(C)(=O)=O)cc2)cn1Cc1ccc(C#N)cc1 [Example 6.12]
7.31 | Cc1c(-c2cccc(C(F)(F)F)c2)c(=O)c(C(=O)NCCC[N+](C)(C)C)cn1Cc1ccc(C#N)cc1 [Example 12.2, (3-{[1-(4-Cyano-benzyl)-6-methyl-4-oxo-5-(3-trifluoromethyl-phenyl)-1,4-dihydro-pyridine-3-carbonyl]-amino}-propyl)-trimethyl-ammonium chloride]
7.94 | Cc1c(-c2ccnc(C(F)(F)F)c2)c(=O)c(C(=O)NCC(F)(F)F)cn1C(C)c1ccc(C#N)cc1 (stereo not drawn) [Example 9.43]
8.24 | Cc1c(-c2ccnc(C(F)(F)F)c2)c(=O)c(C(=O)NCCC(C)O)cn1C(C)c1ccc(C#N)cc1 (stereo not drawn) [Example 9.60]
7.64 | Cc1c(-c2ccnc(C(F)(F)F)c2)c(=O)c(C(=O)NCC(C)C)cn1C(C)c1ccc(C#N)cc1 (stereo not drawn) [Example 9.53]

pIC50 | Structure (SMILES)
7.73 | Cc1c(-c2ccnc(C(F)(F)F)c2)c(=O)c(C(=O)NCC(=O)OC(C)C)cn1C(C)c1ccc(C#N)cc1 (stereo not drawn) [Example 9.31]
6.54 | CCNC(=O)c1cn(C(C)c2ccc(C#N)cc2)c(C)c(-c2cccc(C(F)(F)F)c2)c1=O (single isomer, unassigned) [Example 10B]
7.75 | Cc1c(-c2cccc(C(F)(F)F)c2)c(=O)c(C(=O)NCC2(O)CC2)cn1C(C)c1ccc(C#N)cc1 (stereo not drawn) [Example 7.16]
8.96 | Cc1c(-c2cccc(C(F)F)c2)c(=O)c(C(=O)NCC[S+](C)[O-])cn1C(C)c1ccc(C#N)cc1 (stereo not drawn) [Example 8.8]
8.62 | Cc1c(-c2cccc(C(F)(F)F)c2)c(=O)c(C(=O)NC2CNC(=O)C2)cn1C(C)c1ccc(C#N)cc1 (stereo not drawn) [Example 7.7]
7.43 | Cc1c(-c2ccnc(C(F)(F)F)c2)c(=O)c(C(=O)NCC(C)(C)O)cn1C(C)c1ccc(C#N)cc1 (stereo not drawn) [Example 9.63]
7.92 | Cc1c(-c2cccc(C(F)(F)F)c2)c(=O)c(C(=O)NCCF)cn1C(C)c1ccc(C#N)cn1 (stereo not drawn) [Example 47.6]
> 9.00 | Cc1c(-c2cccc(C(F)(F)F)c2)c(=O)c(C(=O)NCc2ccc(S(C)(=O)=O)cn2)cn1Cc1ccc(C#N)cc1F [Example 4.9]
7.89 | COCCNC(=O)c1cn(C(C)c2ccc(C#N)cn2)c(C)c(-c2cccc(C(F)(F)F)c2)c1=O (stereo not drawn) [Example 47.1]
7.23 | Cc1c(-c2ccnc(C(F)(F)F)c2)c(=O)c(C(=O)NC2CC3CCC2O3)cn1C(C)c1ccc(C#N)cc1 (stereo not drawn) [Example 9.39]
7.78 | Cc1c(-c2cccc(C(F)(F)F)c2)c(=O)c(C(=O)NCC2CC2)cn1C(C)c1ccc(C#N)cn1 (stereo not drawn) [Example 47.5]
7.92 | Cc1c(-c2ccnc(C(F)(F)F)c2)c(=O)c(C(=O)NCC(C)O)cn1C(C)c1ccc(C#N)cc1 (stereo not drawn) [Example 9.62]
6.82 | COCC(C)(C#N)NC(=O)c1cn(C(C)c2ccc(C#N)cc2)c(C)c(-c2ccnc(C(F)(F)F)c2)c1=O (stereo not drawn) [Example 9.49]
9.00 | Cc1c(-c2cccc(C(F)F)c2)c(=O)c(C(=O)NCc2ccncc2)cn1C(C)c1ccc(C#N)cc1 (stereo not drawn) [Example 8.20]
8.68 | Cc1c(-c2cccc(C(F)(F)F)c2)c(=O)c(C(=O)NCc2ccc(S(C)(=O)=O)cn2)cn1Cc1ccc(Cl)cc1 [Example 4.2]
7.12 | COc1cncc(-c2c(C)n(Cc3ccc(C#N)cc3)cc(C(=O)NCc3ccc(S(C)(=O)=O)cc3)c2=O)c1 [Example 6.7]

The remaining lines, values behind:

Structure (SMILES) | pIC50
CNC(=O)c1cn(Cc2ccc(C#N)cc2S(C)(=O)=O)c(C)c(-c2cccc(C(F)(F)F)c2)c1=O [Example 20] | 8.07
Cc1c(-c2cccc(C(F)(F)F)c2)c(=O)c(C(=O)NCC#N)cn1Cc1ccc(C#N)cc1 [Example 46, 1-(4-Cyano-benzyl)-6-methyl-4-oxo-5-(3-trifluoromethyl-phenyl)-1,4-dihydro-pyridine-3-carboxylic acid cyanomethyl-amide] | 8.64
Cc1nc(CNC(=O)c2cn(Cc3ccc(C#N)cc3)c(C)c(-c3cccc(C(F)(F)F)c3)c2=O)no1 [Example 1.60] | 7.88
CNC(=O)c1cn(C2CCc3cc(C#N)ccc32)c(C)c(-c2cccc(C(F)(F)F)c2)c1=O (stereo not drawn) [Example 37, 1-(5-Cyano-indan-1-yl)-6-methyl-4-oxo-5-(3-trifluoromethyl-phenyl)-1,4-dihydro-pyridine-3-carboxylic acid methylamide] | 7.86
Cc1noc(CNC(=O)c2cn(Cc3ccc(C#N)cc3)c(C)c(-c3cccc(C(F)(F)F)c3)c2=O)n1 [Example 1.67] | 8.19
Cc1c(-c2cccc(C(F)(F)F)c2)c(=O)c(C(=O)NCc2cn(C)cn2)cn1Cc1ccc(C#N)cc1 [Example 1.31] | 7.86
Cc1c(-c2cccc(C(F)(F)F)c2)c(=O)c(C(=O)NCc2ccc(S(C)(=O)=O)cc2)cn1[C@H](C)c1ccc(C#N)cc1 [Example 2.5A] | > 9.00
CNC(=O)c1cn(Cc2ccc(C#N)cc2S(=O)(=O)C2CC2)c(C)c(-c2cccc(C(F)(F)F)c2)c1=O [Example 27] | 8.09
Cc1c(-c2cccc(C(F)(F)F)c2)c(=O)c(C(=O)NCc2ccc(=O)[nH]c2)cn1Cc1ccc(C#N)cc1 [Example 1.42] | 8.28
Cc1c(-c2cccc(C(F)(F)F)c2)c(=O)c(C(=O)NCc2ccc(S(C)(=O)=O)cc2)cn1Cc1ccc(C#N)cc1 [Example 2.12] | > 9.00
CNC(=O)c1cn(Cc2ccc(C#N)c(F)c2)c(C)c(-c2cccc(C(F)(F)F)c2)c1=O [Example 3.5] | 7.71
CNC(=O)c1cn(Cc2ccc(C#N)nc2)c(C)c(-c2cccc(C(F)(F)F)c2)c1=O [Example 3.2] | 7.27
Cc1c(-c2cccc(C(F)(F)F)c2)c(=O)c(C(=O)NCc2ccnn2C)cn1Cc1ccc(C#N)cc1 [Example 1.33] | 8.43
Cc1c(-c2cccc(C(F)(F)F)c2)c(=O)c(C(=O)NCc2ccc(S(C)(=O)=O)cc2)cn1Cc1ccccc1 [Example 2.1, 1-Benzyl-6-methyl-4-oxo-5-(3-trifluoromethyl-phenyl)-1,4-dihydro-pyridine-3-carboxylic acid 4-methanesulfonyl-benzylamide] | 7.26
Cc1c(-c2cccc(C(F)(F)F)c2)c(=O)c(C(=O)NCC[S+](C)[O-])cn1Cc1ccc(C#N)cc1 (stereo not drawn) [Example 1.13] | 8.18
Cc1c(-c2cccc(C(F)(F)F)c2)c(=O)c(C(=O)NCc2ccc(S(C)(=O)=O)cc2)cn1Cc1ccc(C#N)cc1F [Example 2.8] | > 9.00
Cc1c(-c2cccc(C(F)(F)F)c2)c(=O)c(C(=O)NCc2ccncc2)cn1Cc1ccc(C#N)cc1 [Example 1.50] | 8.85
Cc1c(-c2cccc(C(F)(F)F)c2)c(=O)c(C(=O)NCC(=O)N(C)C)cn1Cc1ccc(C#N)cc1 [Example 1.65] | 7.41
Cc1c(-c2cccc(C(F)(F)F)c2)c(=O)c(C(=O)N[C@H]2CCC(=O)NC2)cn1Cc1ccc(C#N)cc1 [Example 1.53] | 8.05
Cc1c(-c2cccc(C(F)(F)F)c2)c(=O)c(C(=O)NCC(=O)N2CCCC2)cn1Cc1ccc(C#N)cc1 [Example 1.54] | 7.38
Cc1c(-c2cccc(C(F)(F)F)c2)c(=O)c(C(=O)NCc2ccc(S(C)(=O)=O)cc2)cn1Cc1ccc(F)cc1 [Example 2.2] | 8.72

same assay, conditions: eutomer versus distomer of the racemic example

neutrophil elastase inhibitory potency, one enantiomer compared with the other | Structure (SMILES)
much more active | Cc1c(-c2cccc(C(F)(F)F)c2)c(=O)c(C(=O)NCc2ccc(S(C)(=O)=O)cc2)cn1[C@H](C)c1ccc(C#N)cc1 [Example 2.5A]
